This is an account of results in PMC3038380 (Bioorganic & Medicinal Chemistry, 2010).

Data set [1] can be described thus: NMR chemical shift titration with DPC-d38. Format: binding. Conditions: pH 5.0, 1.0 mM octanoic acid or 1.14 mM ghrelin.
The conditions of data set [2]: free C8 fatty acid; cited from earlier work.

Structures are written as SMILES.

Take `CCCCCCCC(=O)O` [octanoic acid]: the “unitary Gibbs free energy ΔGu0 of binding to DPC micelles” value in data set [1] was -8.6 kcal/mol. The “free energy for the transfer from aqueous into a hydrophobic environment” value in data set [2] was -1.5 kcal/mol.
